Each structure is given as a SMILES string.

Experimental findings from patent publication US20030232994A1, “Bicyclic thiophene derivatives and combinatorial libraries thereof” (priority 2001, published 2003) are described below.

The subject of this assay is Streptococcus pyogenes (ATCC# 97-03 14289). Kind of assay: Anti-microbial screen (growth inhibition, OD 570 nm). Further: test concentration or dose not given here. It counts as cell-based. The following applies: growth in Todd Hewitt Broth, plates read at 570 nm at 0 time and 4 hours, color corrected.
Take `Cc1ccccc1C(=O)N1CCc2c(sc(NC(=O)[C@]34C[C@H]5C[C@@H](C[C@H](C5)C3)C4)c2C(=O)O)C1`: the “% Inhibition” value was 61.84%.

`Cc1noc(C)c1C(=O)N1CCc2c(sc(NC(=O)c3ccccc3)c2C(=O)O)C1`: the “% Inhibition” value worked out at 96.39%.

Turning to `CCCc1ccc(C(=O)Nc2sc3c(c2C(=O)O)CCN(C(=O)c2ccc(C)cc2C)C3)cc1`, the “% Inhibition” value is on record as 61.2%.

For the molecule `CC(C)CC(=O)N1CCc2c(sc(NC(=O)c3ccccc3Cl)c2C(=O)O)C1`, the “% Inhibition” value was 59.63%.

Regarding `CC(C)(C)c1ccc(C(=O)Nc2sc3c(c2C(=O)O)CCN(C(=O)c2ccccc2Cl)C3)cc1`, the “% Inhibition” value stood at 89.72%.

The term % Inhibition denotes the share of the control response that was lost under treatment.
